Experimental data reported in patent publication US7902195B2, “Pyridine [3,4-b] pyrazinones” (Pharmacia & Upjohn Company LLC, priority 2006, dated 2011).

target: T1, PDE5 enzyme isolated from human platelets (Homo sapiens, UniProt O76074); test: Alternative human platelet PDE5 enzyme inhibition scintillation proximity assay (Method 2); type: biochemical; conditions: cGMP substrate 50 nM, 60 minutes at room temperature
T1 construct: The PDE5 enzyme for use in the assay can be obtained from human platelets; from tissue; host or cells: human platelets
Source text: The IC50 of a test compound can be measured using an in vitro assay using PDE5 enzyme isolated from human platelets. The IC50 is the concentration of test compound required to inhibit the hydrolysis of cGMP to GMP by the PDE5 enzyme by 50% relative to the activity of uninhibited controls. The PDE5 enzyme for use in the assay can be obtained from human platelets by appropriate modification of the method of Thompson, W J et al.; Biochemistry 18(23), 5228-5237, 1979, as described by Ballard S A et al.; J. Urology 159(6), 2164-2171, 1998. The PDE5 enzyme so obtained can be used to catalyze the hydrolysis of [^3H]cGMP (Amersham Biosciences) to 5′ nucleotide [^3H]GMP. The [^3H]GMP binds to yttrium silicate SPA beads (Amersham Biosciences) and is detected by scintillation counting. More specifically, the effect of a test compound at different concentrations can be evaluated in the assay by contacting the compound with a fixed amount of PDE5 enzyme in the presence of substrate (cGMP […] in a 3:1 ratio unlabelled to [^3H]-labeled). Scintillation counting can be used as described above to determine relative PDE5 enzyme activity. The inhibition of PDE5 enzyme activity is then calculated relative to total PDE5 enzyme activity of uninhibited controls.
Method 2: Alternative Human Platelet PDE5 Enzyme Inhibition Scintillation Proximity Assay
PDE5 IC50 Assay: 96-Well Microtiter Plate Format
Buffer A: 20 mM Tris-HCl, 5 mM MgCl2, pH 7.4
Buffer B: 2 mg/ml BSA in Buffer A (enzyme buffer)
cGMP substrate: Final concentration of 50 nM in assay
The amount of ^3H-labeled substrate added depends upon the specific activity of [^3H]cGMP, and it is diluted in Buffer A.
PDE enzyme: Prepared in Buffer B. The dilution factor is determined by enzyme activity.
SPA beads: 4 mg/ml suspension prepared in dH2O.
Stocks of standard and test compound are prepared at 2 mM in 100% DMSO. The test compound is serially diluted in a dilution plate using an 8-point ⅕ log dilution format such that the starting concentration in the assay is 2 μM for an initial IC50 screen. 27 μl of Buffer A are added to the wells of the assay plates. From the dilution plate, 3 μl of diluted compound is delivered in duplicate or 3 μl of 100% DMSO (for positive and negative controls) are added. 30 μl of enzyme are added. For the negative control wells, Buffer B is substituted in place of the enzyme. 30 μl of labeled substrate are added to all wells.
After incubating for 60 minutes at room temperature, the reaction is stopped with the addition of 30 μl of the yttrium silicate beads. These beads are dense and require constant agitation while being added to the plate. The plates are sealed and shaken on a plate shaker for fifteen minutes to allow the beads to bind the GMP product.
After allowing the beads to settle for 30 minutes, plates are read on a NXT TopCount scintillation counter and the data are analyzed as follows. Percent inhibition values are calculated using the means of the 0% and 100% controls on each plate. The estimates of the 4-parameters of the logistic, sigmoid dose-response model are then calculated using the well-level percent inhibition value for the compound. The formula for the four-parameter logistic model may be expressed as Y=((a−d)/(1+(X/c)^b))+d, where Y is the response, X is the concentration, a is the lower asymptote (minimum response), d is the upper asymptote (maximum response), c is the model IC50 (in the same units as X), and b is the slope (as described in De Lean, A., P. J. Munson, and D. Rodbard (“Simultaneous analysis of families of sigmoidal curves: application to bioassay, radioligand assay, and physiological dose-response curves.” Am. J. Physiol. 235(2): E97-E102, 1978). These estimates are used to calculate the concentration that corresponds to 50% inhibition.
Compounds were tested in accordance with Method 2 above yielding the IC50 values described in Table C.

Row | IC50 [nM] | Compound
1 | 1190 | 7-(4-(dimethylamino)-2-methylphenyl)-3-(4-(2-hydroxyethyl)piperazin-1-yl)-1-(2-propoxyethyl)pyrido[3,4-b]pyrazin-2(1H)-one [Example 15]
2 | 3.28 | CCCOCCn1c(=O)c(N2CCNCC2)nc2cnc(-c3ccc(OC)nc3)cc21 [Example 1, 7-(6-methoxypyridin-3-yl)-3-(piperazin-1-yl)-1-(2-propoxyethyl)pyrido[3,4-b]pyrazin-2(1H)-one]
3 | 2.38 | CCCOCCn1c(=O)c(N2C[C@H]3C[C@@H]2CN3)nc2cnc(-c3ccc(OC)nc3)cc21 [Example 2, 3-[(1R,4R)-2,5-diazabicyclo[2.2.1]hept-2-yl]-7-(6-methoxypyridin-3-yl)-1-(2-propoxyethyl)pyrido[3,4-b]pyrazin-2(1H)-one]
4 | 1.01 | CCCOCCn1c(=O)c(N2CCOCC2)nc2cnc(-c3ccc(OC)nc3)cc21 [Example 3, 7-(6-methoxypyridin-3-yl)-3-morpholin-4-yl-1-(2-propoxyethyl)pyrido[3,4-b]pyrazin-2(1H)-one]
5 | 0.225 | CCCOCCn1c(=O)c(N2CCCC(O)C2)nc2cnc(-c3ccc(OC)nc3)cc21 (stereo not shown) [Example 4, 3-(3-hydroxypiperidin-1-yl)-7-(6-methoxypyridin-3-yl)-1-(2-propoxyethyl)pyrido[3,4-b]pyrazin-2(1H)-one]
6 | 0.203 | CCCOCCn1c(=O)c(N2CCN(CCO)CC2)nc2cnc(-c3ccc(OC)nc3)cc21 [Example 5, 3-[4-(2-hydroxyethyl)piperazin-1-yl]-7-(6-methoxypyridin-3-yl)-1-(2-propoxyethyl)pyrido[3,4-b]pyrazin-2(1H)-one]
7 | 0.313 | CCCOCCn1c(=O)c(N2CCCC(CO)C2)nc2cnc(-c3ccc(OC)nc3)cc21 (stereo not shown) [Example 6, 3-[3-(hydroxymethyl)piperidin-1-yl]-7-(6-methoxypyridin-3-yl)-1-(2-propoxyethyl)pyrido[3,4-b]pyrazin-2(1H)-one]
8 | 0.083 | CCCOCCn1c(=O)c(N2CCN(CC(=O)OC(C)(C)C)CC2)nc2cnc(-c3ccc(OC)nc3)cc21 [Example 7, tert-butyl {4-[7-(6-methoxypyridin-3-yl)-2-oxo-1-(2-propoxyethyl)-1,2-dihydropyrido[3,4-b]pyrazin-3-yl]piperazin-1-yl}acetate]
9 | 0.517 | CCCOCCn1c(=O)c(N2CCN(CC(=O)O)CC2)nc2cnc(-c3ccc(OC)nc3)cc21 [Example 8, {4-[7-(6-methoxypyridin-3-yl)-2-oxo-1-(2-propoxyethyl)-1,2-dihydropyrido[3,4-b]pyrazin-3-yl]piperazin-1-yl}acetic acid]
10 | 0.248 | CCCOCCn1c(=O)c(N2CCN(CCO)[C@@H](C)C2)nc2cnc(-c3ccc(OC)nc3)cc21 [Example 9, 3-[(3S)-4-(2-hydroxyethyl)-3-methylpiperazin-1-yl]-7-(6-methoxypyridin-3-yl)-1-(2-propoxyethyl)pyrido[3,4-b]pyrazin-2(1H)-one]
11 | 0.193 | CCCOCCn1c(=O)c(N2CC(C)N(CCCO)C(C)C2)nc2cnc(-c3ccc(OC)nc3)cc21 (stereo not shown) [Example 10, 3-[4-(3-hydroxypropyl)-3,5-dimethylpiperazin-1-yl]-7-(6-methoxypyridin-3-yl)-1-(2-propoxyethyl)pyrido[3,4-b]pyrazin-2(1H)-one]
12 | 0.177 | CCCOCCn1c(=O)c(N2CCN(CCCO)CC2)nc2cnc(-c3ccc(OC)nc3)cc21 [Example 11, 3-[4-(3-hydroxypropyl)piperazin-1-yl]-7-(6-methoxypyridin-3-yl)-1-(2-propoxyethyl)pyrido[3,4-b]pyrazin-2(1H)-one]
13 | 0.721 | CCCOCCn1c(=O)c(N2CCCN(CCO)CC2)nc2cnc(-c3ccc(OC)nc3)cc21 [Example 12, 3-[4-(2-hydroxyethyl)-1,4-diazepan-1-yl]-7-(6-methoxypyridin-3-yl)-1-(2-propoxyethyl)pyrido[3,4-b]pyrazin-2(1H)-one]
14 | 1.35 | CCCOCCn1c(=O)c(N2CCN(CCO)CC2)nc2cnc(-c3ccc(Cl)cc3)cc21 [Example 13, 7-(4-chlorophenyl)-3-(4-(2-hydroxyethyl)piperazin-1-yl)-1-(2-propoxyethyl)pyrido[3,4-b]pyrazin-2(1H)-one]
15 | 832 | CCCOCCn1c(=O)c(N2CCN(CCO)CC2)nc2cnc(-c3ccc(O)cc3)cc21 [Example 14, 3-(4-(2-hydroxyethyl)piperazin-1-yl)-7-(4-hydroxyphenyl)-1-(2-propoxyethyl)pyrido[3,4-b]pyrazin-2(1H)-one]
16 | 3.34 | CCCOCCn1c(=O)c(N2CCN(CCO)CC2)nc2cnc(-c3cccc(Cl)c3)cc21 [Example 16, 7-(3-chlorophenyl)-3-(4-(2-hydroxyethyl)piperazin-1-yl)-1-(2-propoxyethyl)pyrido[3,4-b]pyrazin-2(1H)-one]
17 | 7.71 | CCCOCCn1c(=O)c(N2CCN(CCO)CC2)nc2cnc(-c3ccc(OC)cc3)cc21 [Example 17, 3-(4-(2-hydroxyethyl)piperazin-1-yl)-7-(4-methoxyphenyl)-1-(2-propoxyethyl)pyrido[3,4-b]pyrazin-2(1H)-one]
18 | 29.9 | CCCOCCn1c(=O)c(N2CCN(CCO)CC2)nc2cnc(-c3ccc(F)cc3F)cc21 [Example 18, 7-(2,4-difluorophenyl)-3-(4-(2-hydroxyethyl)piperazin-1-yl)-1-(2-propoxyethyl)pyrido[3,4-b]pyrazin-2(1H)-one]
19 | 102 | CCCOCCn1c(=O)c(N2CCN(CCO)CC2)nc2cnc(-c3ccc(S(=O)(=O)CC)cc3)cc21 [Example 19, 7-(4-(ethylsulfonyl)phenyl)-3-(4-(2-hydroxyethyl)piperazin-1-yl)-1-(2-propoxyethyl)pyrido[3,4-b]pyrazin-2(1H)-one]
20 | 1.59 | CCCOCCn1c(=O)c(N2CCN(CCO)CC2)nc2cnc(-c3cccc(OC)c3F)cc21 [Example 20, 7-(2-fluoro-3-methoxyphenyl)-3-(4-(2-hydroxyethyl)piperazin-1-yl)-1-(2-propoxyethyl)pyrido[3,4-b]pyrazin-2(1H)-one]
21 | 413 | CCCOCCn1c(=O)c(N2CCN(CCO)CC2)nc2cnc(-c3ccc(OC(C)C)cc3)cc21 [Example 21, 3-(4-(2-hydroxyethyl)piperazin-1-yl)-7-(4-isopropoxyphenyl)-1-(2-propoxyethyl)pyrido[3,4-b]pyrazin-2(1H)-one]
22 | > 2000 | CCCOCCn1c(=O)c(N2CCN(CCO)CC2)nc2cnc(-c3cccc4cnccc34)cc21 [Example 22, 3-(4-(2-hydroxyethyl)piperazin-1-yl)-7-(isoquinolin-5-yl)-1-(2-propoxyethyl)pyrido[3,4-b]pyrazin-2(1H)-one]
23 | 1790 | CCCOCCn1c(=O)c(N2CCN(CCO)CC2)nc2cnc(-c3ccc(CO)cc3)cc21 [Example 23, 3-(4-(2-hydroxyethyl)piperazin-1-yl)-7-(4-(hydroxymethyl)phenyl)-1-(2-propoxyethyl)pyrido[3,4-b]pyrazin-2(1H)-one]
24 | 1400 | CCCOCCn1c(=O)c(N2CCN(CCO)CC2)nc2cnc(-c3ccc(OCC)cc3)cc21 [Example 24, 7-(4-ethoxyphenyl)-3-(4-(2-hydroxyethyl)piperazin-1-yl)-1-(2-propoxyethyl)pyrido[3,4-b]pyrazin-2(1H)-one]
25 | 1.87 | CCCOCCn1c(=O)c(N2CCN(CCO)CC2)nc2cnc(-c3ccc(F)c(C)c3)cc21 [Example 25, 7-(4-fluoro-3-methylphenyl)-3-(4-(2-hydroxyethyl)piperazin-1-yl)-1-(2-propoxyethyl)pyrido[3,4-b]pyrazin-2(1H)-one]
